Columns and labels:
male NIH Swiss mice [1] = assay: Nestlet shredding; type: in vivo, mouse; conditions: 30 min.
From the text: Mice naturally will construct nests of material available in their living environment. Since this behavior is obsessive in nature, it has been used to model OCD (Mia Li, Denise Morrow and Jeffrey M. Witkin, “Decreases in nestlet shredding of mice by serotonin uptake inhibitors: comparison with marble burying”, Psychopharmacology, submitted Jul. 14, 2003). House experimentally-naïve male, NIH Swiss mice (Harlan Sprague-Dawley, Indianapolis, Ind.) weighing between 28-35 g in groups of 12 for at least three days prior to testing in a vivarium with a 12 hr. light/dark cycle. Conduct experiments during the light cycle in an experimental room with normal overhead fluorescent lighting. Dose mice with vehicle or test compound and after a specified pretreatment interval (generally 30 min.), place the mice individually in a 17×28×12 cm high plastic tub with about 5 mm sawdust shavings on the floor along with a pre-weighed multi-ply gauze pad (51 mm square). After 30 min., weigh the remainder of the gauze pad not removed by the mouse. Determine the weight of the gauze used for nestlet construction by subtraction. Compare the results for test compound treated mice to the results for vehicle control treated mice with Dunnett's test.
Clinically effective OCD treatment standard compounds suppress nestlet shredding at doses that are devoid of motor-impairing effects as measured by the rotorod test. […]

Wistar rats [2] = assay: Schedule-induced polydipsia; type: in vivo, rat
From the text: Food-deprived rats exposed to intermittent presentations of food will drink amounts of water that are far in excess of their normal daily intake and in excess of their intake when given all of their food at one time (Falk J L. “Production of polydipsia in normal rats by an intermittent food schedule”, Science 133: 195-196, (1961)). This excessive behavior is persistent and has been used to model OCD.
Maintain Wistar rats on a food restricted diet (to maintain 85% free feeding weight), but with free access to water. Train the rats in a behavioral testing chamber to press a lever to receive a food pellet under a fixed interval schedule, such that the rats are rewarded with a 45 mg food pellet the first time they press a lever after a 120 second interval has elapsed. The fixed interval is then reset to 120 seconds and the process repeated. Thus, during a 90 min. test session, the rats can earn a maximum of 45 pellets. The behavioral chamber is also equipped with a water bottle that is weighed before and after the session to determine the amount of water consumed.
Administer test compounds on Tuesdays and Fridays. Determine control day performances on Thursdays. Administer compounds either orally at 60 min. before the beginning of a test session, or subcutaneously at 20 min. before the beginning of a test session. Compare the rates of lever pressing and water consumption for each animal's performance during sessions after test compound treatment with that animal's performance during control sessions, expressed as a percent of the control rate. Average the individual percent of control rates for each dose and calculate the standard error of the mean.
The in vivo efficacy of 5HT2C compounds at the 5HT2C receptor was confirmed by the prevention of effects of the 5HT2C agonists on excessive drinking by co-administration of the 5HT2C receptor antagonist, 6-chloro-5-methyl-N-(2-(2-methylpyridin-3-yl-oxy)pyridin-5-yl)aminocarbonyl)-2,3-dihydroindole.

male NIH Swiss mice [3] = assay: Marble burying assay (with rotorod); type: in vivo, mouse; conditions: 30 min. burying session
From the text: Marble burying in mice has been used to model anxiety disorders including obsessive-compulsive disorders (OCD) due to ethological study of the behavior (e.g. Gyertyan I. “Analysis of the marble burying response: Marbles serve to measure digging rather than evoke burying”, Behavioural Pharmacology 6: 24-31, (1995)) and due to the pharmacological effects of clinical standards (c.f., Njung′E K. Handley S L. “Evaluation of marble-burying behavior as a model of anxiety”, Pharmacology, Biochemistry & Behavior. 38: 63-67, (1991)); Borsini F., Podhorna J., and Marazziti, D. “Do animal models of anxiety predict anxiolytic effects of antidepressants?”, Psychopharmacology 163: 121-141, (2002)). Thus, drugs used in the treatment of generalized anxiety in humans (e.g. benzodiazepines) as well as compounds used to treat OCD (e.g. SSRIs like fluoxetine) decrease burying.
House experimentally-naïve male, NIH Swiss mice (Harlan Sprague-Dawley, Indianapolis, Ind.) weighing between 28-35 g in groups of 12 for at least three days prior to testing in a vivarium with 12 hr. light and dark cycles. Conduct experiments during the light cycle in a dimly lit experimental testing room. Dose mice with vehicle or compound and, after a specified pretreatment interval (generally 30 min.), place each mouse individually on a rotorod (Ugo Basile 7650) operating at a speed of 6 revolutions/min. and observe for falling. After 2 min. on the rotorod, place the mice individually in a 17×28×12 cm high plastic tub with 5 mm sawdust shavings on the floor that are covered with 20 blue marbles (1.5 cm diameter) placed in the center. After 30 min., count the number of marbles buried (⅔ covered with sawdust). Assess the compound's effect on marble burying with Dunnett's test and the effect on rotorod performance by Fisher's exact test.
Clinically effective standard compounds suppress marble burying at doses that are devoid of motor-impairing effects as measured on the rotorod. […]

Wistar rats [4] = conditions: general statement on standards; cited from earlier work

For `C[C@H](N)Cc1ccccc1` [d-amphetamine, reference compound], the “nestlet shredding (relative to motor effects, rotorod test)” value (male NIH Swiss mice [1]) was “decrease nestlet shredding only at doses that produce motoric side effects”, the “schedule-induced polydipsia (excessive drinking)” value (Wistar rats [2]; food restricted rats, 90 min. test session) was “decreases excessive drinking only at behaviorally stimulating doses” and the “suppression of excessive drinking with co-administration of the 5-HT2C receptor antagonist” value (Wistar rats [2]; rats) was “not prevented”.
With `CN(C)CCCN1c2ccccc2Sc2ccc(Cl)cc21` [chlorpromazine, reference compound] the “marble burying behavior (relative to rotorod performance)” value (male NIH Swiss mice [3]) was “decreased marble burying only at doses that also disrupt rotorod performance”.
For `CNCCC(Oc1ccc(C(F)(F)F)cc1)c1ccccc1` (stereo not shown) [fluoxetine], the “schedule-induced polydipsia, clinically effective OCD treatment standard compounds” value (Wistar rats [4]) is given as “suppress schedule-induced polydipsia without producing notable changes in motor patterns, food intake, or behavior the following day”.
In the case of `FC(F)(F)CNc1c(Cl)ccc2c1CCNCC2`, the melting point is reported as 183 to 185.2 °C.
For `CN(C)CCCN1c2ccccc2CCc2ccc(Cl)cc21` [chlomipramine], the “schedule-induced polydipsia, clinically effective OCD treatment standard compounds” value (Wistar rats [4]) is given as “suppress schedule-induced polydipsia without producing notable changes in motor patterns, food intake, or behavior the following day”.

— US20060264418A1, “6-(2,2,2-Trifluoroethylamino-7-chloro-2,3,4,5-tetrahydro-1h-benzo[d] azephine as a 5-ht2c receptor agonist” (priority 2003, published 2006)
